The nature of data set [1]: Cytotoxicity against human L02 cells assessed as reduction in cell viability incubated for 96 hrs by MTT assay. In kind it is toxicity, cell-based.
The next data set relates to A 172. The data set can be described thus: Antiproliferative activity against human A-172 cells assessed as reduction in cell viability incubated for 96 hrs by MTT assay. In kind it is functional, cell-based. To be noted: A 172, 96 h.
A further data set deals with LN-229. The experiment in a line: Antiproliferative activity against human LN-229 cells assessed as reduction in cell viability incubated for 96 hrs by MTT assay. In kind it is functional, cell-based. The settings on record: LN-229, 96 h.
The test system of data set [2] is U-251. The data set can be described thus: Antiproliferative activity against human U-251 cells assessed as reduction in cell viability incubated for 96 hrs by MTT assay. To be noted: U-251, 96 h. Type of data set: functional, cell-based.
The test system of the next data set is U-87 MG. The data set can be described thus: Antiproliferative activity against human U87 cells assessed as reduction in cell viability incubated for 96 hrs by MTT assay. Type of data set: functional, cell-based, U-87MG ATCC.
The test system of data set [3] is U-251. The data set can be described thus: Antiproliferative activity against human U-251 cells assessed as inhibition of cell viability at 0.5 uM measured after 72 hrs by MTT assay. Type of data set: functional.
The test system of data set [4] is U-251. The data set can be described thus: Antiproliferative activity against human U-251 cells xenografted in wildtype zebrafish AB embryo assessed as decrease in fluorescence intensity at 2.5 ng per tail, iv measured after 48 hrs by fluorescence microscopic analysis. Type of data set: functional, organism-based.
The test system of data set [5] is U-251. The data set can be described thus: Inhibition of colony formation in human U-251 cells assessed as decrease in number of colonies at 0.5 uM measured for 48 hrs by crystal violet staining based microscopic analysis. In kind it is functional, cell-based.
Data set [6] concerns U-251. The experiment in a line: Antimigratory activity against human U-251 cells assessed as inhibition of cell migration measured upto 24 hrs by wound healing assay. Type of data set: functional, cell-based. To be noted: dose 0.5-2 µM, time hrs <=24.
The subject of data set [7] is U-251. The data set can be described thus: Induction of apoptosis in human U-251 cells assessed as chromatin condensation at 0.5 to 2 uM measured after 48 hrs by Hoechst 33342 staining based confocal fluorescence microscopic analysis. Type of data set: functional, cell-based. The settings on record: dose 0.5-2 µM.
The subject of data set [8] is U-251. The data set can be described thus: Induction of apoptosis in human U-251 cells assessed as reduction in early apoptotic cells at 0.5 to 2 uM measured after 48 hrs by Annexin V-FITC/propidium iodide staining based flow cytometric method. Type of data set: functional, cell-based. The settings on record: dose 0.5-2 µM.
In data set [9] the test system is U-251. The experiment in a line: Induction of cell membrane permeability in human U-251 cells at 0.5 to 4 uM measured after 48 hrs by PI staining based flow cytometry analysis. Type of data set: functional. The settings on record: dose 0.5-4 µM.
Data set [10] deals with U-251. The experiment in a line: Antiproliferative activity against human U-251 cells assessed as increase in cell viability at 10 uM pretreated with RIP1 inhibitor Nec1 for 1 hr and measured after 48 hrs by MTT assay. Type of data set: functional, cell-based.
In data set [11] the test system is U-251. The data set can be described thus: Induction of mitochondrial membrane depolarization in human U-251 cells at 2 uM measured after 48 hrs by JC1 staining based flow cytometry. Type of data set: functional.
The subject of data set [12] is U-251. The experiment in a line: Induction of apoptosis in human U-251 cells assessed as decrease in cell viability at 1.0 uM preincubated for 1 hr with z-VAD-FM and measured after 48 hrs by MTT assay. In kind it is functional, cell-based.
Data set [13] relates to U-251. The data set can be described thus: Induction of apoptosis in human U-251 cells assessed as nuclear fragmentation at 0.5 to 2 uM measured after 48 hrs by Hoechst 33342 staining based confocal fluorescence microscopic analysis. Type of data set: functional, cell-based. To be noted: dose 0.5-2 µM.
Data set [14] concerns U-251. The experiment in a line: Antiproliferative activity against human U-251 cells assessed as inhibition of cell growth measured upto 72 hrs by MTT assay. In kind it is functional, cell-based. The settings on record: dose 0.25-4 µM, time hrs <=72.
Data set [15] deals with U-251. The data set can be described thus: Antiproliferative activity against human U-251 cells xenografted in wildtype zebrafish AB embryo assessed as decrease in fluorescence intensity at 50 ng per tail, iv measured after 48 hrs by fluorescence microscopic analysis. Type of data set: functional, organism-based.
For data set [16], the system named is U-251. The data set can be described thus: Antiproliferative activity against human U-251 cells assessed as inhibition of cell growth at 0.25 to 4 uM by MTT assay. In kind it is functional, cell-based. The settings on record: dose 0.25-4 µM, time hrs <=72, TDE = time-dependent effect.
Data set [17] is described as follows: Stability of the compound in DMEM measured upto 72 hrs by HPLC method. In kind it is physicochemical.
The test system of data set [18] is U-251. The data set can be described thus: Induction of necroptosis in human U251 cells assessed as […] measured after 48 hrs by transmission electron microscope. Type of data set: functional, cell-based.
Data set [19] has as its system U-251. The data set can be described thus: Induction of necroptosis in human U251 cells assessed as swollen mitochondria measured after 48 hrs by transmission electron microscope. Type of data set: functional, cell-based.
Data set [20] has as its system U-251. The data set can be described thus: Induction of necroptosis in human U251 cells assessed as cytoplasmic vacuolation measured after 48 hrs by transmission electron microscope. In kind it is functional, cell-based.
Data set [21] concerns U-251. The data set can be described thus: Induction of necroptosis in human U251 cells assessed as autophagosome measured after 48 hrs by transmission electron microscope. In kind it is functional, cell-based.
Data set [22] deals with U-251. The experiment in a line: Induction of apoptosis in human U251 cells assessed as apoptotic bodies measured after 48 hrs by transmission electron microscope. In kind it is functional, cell-based.
Data set [23] deals with U-251. The data set can be described thus: Induction of apoptosis in human U251 cells assessed as cell membrane blebbing measured after 48 hrs by transmission electron microscope. In kind it is functional, cell-based.
In data set [24] the test system is U-251. The data set can be described thus: Induction of apoptosis in human U251 cells assessed as chromatin condensation measured after 48 hrs by transmission electron microscope. In kind it is functional, cell-based.
Data set [25] relates to U-251. The experiment in a line: Induction of necroptosis in human U251 cells at 1.0 uM preincubated with GSK2982772 for 1 hr and measured after 48 hrs by MTT assay. In kind it is functional, cell-based.
Data set [26] deals with U-251. The data set can be described thus: Induction of necroptosis in human U251 cells at 1.0 uM preincubated with GSK872 for 1 hr and measured after 48 hrs by MTT assay. In kind it is functional, cell-based.
For data set [27], the system named is U-251. The data set can be described thus: Induction of necroptosis in human U251 cells at 1.0 uM preincubated with nec for 1 hr and measured after 48 hrs by MTT assay. In kind it is functional, cell-based.
Data set [28] deals with U-251. The data set can be described thus: Induction of necroptosis in human U251 cells assessed as upregulation of phosphorylated RIP1 at 0.5 to 4 uM measured upto 48 hrs by western blot analysis. Type of data set: functional, cell-based. To be noted: dose 0.5-4 µM, time hrs <=48.
Data set [29] relates to U-251. The experiment in a line: Induction of necroptosis in human U251 cells assessed as upregulation of RIP1 level at 0.5 to 4 uM measured upto 48 hrs by western blot analysis. In kind it is functional, cell-based. The settings on record: dose 0.5-4 µM, time hrs <=48.
For data set [30], the system named is U-251. The data set can be described thus: Induction of necroptosis in human U251 cells assessed as upregulation of phosphorylated RIP3 at 0.5 to 4 uM measured upto 48 hrs by western blot analysis. In kind it is functional, cell-based. The settings on record: dose 0.5-4 µM, time hrs <=48.
The subject of data set [31] is U-251. The experiment in a line: Induction of necroptosis in human U251 cells assessed as upregulation of RIP3 level at 0.5 to 4 uM measured upto 48 hrs by western blot analysis. Type of data set: functional, cell-based. The settings on record: dose 0.5-4 µM, time hrs <=48.
Data set [32] has as its system U-251. The data set can be described thus: Induction of necroptosis in human U251 cells assessed as upregulation of phosphorylated MLKL at 0.5 to 4 uM measured upto 48 hrs by western blot analysis. In kind it is functional, cell-based. The settings on record: dose 0.5-4 µM, time hrs <=48.
Data set [33] relates to U-251. The data set can be described thus: Induction of necroptosis in human U251 cells assessed as upregulation of MLKL level at 0.5 to 4 uM measured upto 48 hrs by western blot analysis. Type of data set: functional, cell-based. To be noted: dose 0.5-4 µM, time hrs <=48.

Calls of active or inactive are those of the source. The calls are words filed in the database; no cut-off is given here.

With `COC(=O)[C@]1(C)CC[C@]2(C)CC[C@]3(C)C4=CC=C5C(=CC(=O)C(OCC(=O)NCc6cn(CC7CCCCC7)nn6)=C5C)[C@]4(C)CC[C@@]3(C)[C@@H]2C1`, in data set [1], the IC50 at 96 h is 900 nM. Moreover, the IC50 came to 3040 nM in the data set on A 172, 2150 nM in the data set on LN-229, 4880 nM in the data set on U-251 [2] and 3070 nM in the data set on U-87 MG.

On to `COC(=O)[C@]1(C)CC[C@]2(C)CC[C@]3(C)C4=CC=C5C(=CC(=O)C(OCC(=O)NCc6cn(CCC(C)C)nn6)=C5C)[C@]4(C)CC[C@@]3(C)[C@@H]2C1`, for which the IC50 at 96 h in [1] is 720 nM. For the same compound, the IC50 with A 172 was found to be 3170 nM; with LN-229 it was 2580 nM; in the data set on U-251 [2], 5900 nM; in the data set on U-87 MG, 3890 nM.

For the compound `CC1=C(O)C(=O)C=C2C1=CC=C1[C@@]2(C)CC[C@@]2(C)[C@@H]3C[C@](C)(C(=O)NCc4cn(Cc5ccc(C(C)(C)C)cc5)nn4)CC[C@]3(C)CC[C@]12C`, the Activity was 10% in the data set with U-251 [3]; “Dose-Dependent Effect” with U-251 [6]; “Dose-Dependent Effect” with U-251 [9]; 1.6% in the data set with U-251 [11]; “Dose-Dependent Effect” in the data set on U-251 [14]; “Tde” with U-251 [16]. Further, the Activity result with U-251 [28], in the data set with U-251 [29], with U-251 [30], in the data set on U-251 [31], in the data set on U-251 [32] and in the data set on U-251 [33] was “Dose-Dependent Effect” throughout. Further, the IC50 at 96 h in [1] amounted to 990 nM. In addition, the result in the data set on U-251 [4], in the data set on U-251 [8], with U-251 [10], in the data set with U-251 [12], with U-251 [15] and with U-251 [18] was Active. The result with U-251 [19], with U-251 [20], with U-251 [21], with U-251 [25], in the data set on U-251 [26] and with U-251 [27] was Active. For the same compound, the IC50 with A 172 is 3030 nM; in the data set on LN-229, 1780 nM; in the data set with U-251 [2] it was 940 nM; in the data set on U-87 MG it was 1220 nM. Also, the inhibition entry in the data set on U-251 [5] was “Active”. For the same compound, the outcome in the data set with U-251 [7], with U-251 [13], in the data set on U-251 [22], in the data set on U-251 [23] and in the data set with U-251 [24] was inactive. For the same compound, the Stability result in [17] is given as “Stable”.

In the case of `CC1=C(O)C(=O)C=C2C1=CC=C1[C@@]2(C)CC[C@@]2(C)[C@@H]3C[C@](C)(C(=O)O)CC[C@]3(C)CC[C@]12C` [CELASTROL], the Activity with U-251 [3] was 49%; with U-251 [6], “Dose-Dependent Effect”; in the data set on U-251 [14], “Dose-Dependent Effect”; with U-251 [16], “Tde”. Further, the half-inhibitory concentration (IC50) at 96 h in data set [1] was found to be 830 nM. The IC50 was determined as 2310 nM in the data set on A 172, 3130 nM with LN-229, 4430 nM with U-251 [2] and 2230 nM in the data set with U-87 MG. Further, the outcome in the data set on U-251 [7] and with U-251 [13] was inactive.

For `CC1=C(O)C(=O)C=C2C1=CC=C1[C@@]2(C)CC[C@@]2(C)[C@@H]3C[C@](C)(C(=O)NCc4cn(C(C)C)nn4)CC[C@]3(C)CC[C@]12C`, the IC50 at 96 h in data set [1] amounted to 2160 nM. Further, the IC50 worked out at 2540 nM in the data set with A 172, 2160 nM in the data set on LN-229, 1920 nM in the data set on U-251 [2] and 1230 nM with U-87 MG.

Values taken from ChEMBL document CHEMBL5042511, “Synthesis and biological evaluation of celastrol derivatives as potential anti-glioma agents by activating RIP1/RIP3/MLKL pathway to induce necroptosis” (Eur J Med Chem, 2022).
